Test results: US20060069038A1, “Irreversible caspase-3 inhibitors as active site probes” (priority 2003, published 2006)

Molecular target: T1, caspase-3 (Rattus norvegicus, UniProt P55213)
T1 construct: endogenous in cells; host or cells: primary rat thymocytes (Sprague-Dawley), spontaneous apoptosis in culture
T1 sequence (P55213 29-175 limits assumed): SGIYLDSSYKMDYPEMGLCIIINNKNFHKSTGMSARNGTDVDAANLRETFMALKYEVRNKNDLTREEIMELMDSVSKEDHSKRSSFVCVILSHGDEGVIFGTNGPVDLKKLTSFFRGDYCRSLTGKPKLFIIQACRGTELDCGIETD
T1 sequence (P55213 176-277 limits assumed): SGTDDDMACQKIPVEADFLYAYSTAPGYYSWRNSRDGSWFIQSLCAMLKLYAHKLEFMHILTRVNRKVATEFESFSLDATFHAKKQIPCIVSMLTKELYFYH
Assay: Saturation labeling of caspases in protein extracts of thymi from CLP-operated rats dosed with M867
Format: binding
Settings: low specific activity probe, 80 μg rat thymus extract
Protocol: FIG. 7. Comparison of p17 caspase labeled with [^125I]-M808 for a short or a long incubation period. Septic rats were dosed intravenously with either vehicle or the indicated concentration of M867. Thymi were collected 24 hours post-CLP surgery. Western blot showing the appearance of cleaved p17 caspase-3. Partial caspase-3 labeling with high specific activity probe for 5 minutes. Saturated [^125I]-M808 labeling of active caspases in the same thymi extracts with low specific activity probe for 3 hours or 18 hours. During the long incubation period, M867 originally present on caspase-3 (seen from low or absent labeling) dissociates from the active site and is replaced by the irreversible active site probe [^125I]-M808. Displacement is essentially complete by 3 hours since no change in labeling intensity was observed between a 3 h and 18 h incubation period at 37° C.
Quantitation of total amount of active caspase can be determined by exposing protein extracts from either cultured cells (Jurkats, thymocytes) of CLP-derived rat thymi to low-specific activity [^125I]-M808 for long period of time. Briefly, 80 μg of rat thymus protein extracts from CLP-operated rats dosed with M867, were incubated for 3 hours or 18 hours with 1250 M808 (5 nM at 2000 Ci/mmole) and M808 (395 nM). […]

- incubation time sufficient to label all active caspase-3 quantitatively: 3 h
SMILES: COc1ccc(I)cc1CC(=O)N[C@H](C(=O)NC(CC(=O)O)C(=O)CF)C(C)C (stereo partly drawn) [[^125I]-M808, 5-fluoro-3-({N-[(5-iodo-2-methoxyphenyl)acetyl]-L-valyl}amino)-4-oxopentanoic acid]
